# Key:
# [1] = test system: CFA induced hypersensitivity; assay: CFA induced hypersensitivity in rat, weight bearing (incapacitance tester); assay type: in vivo; settings: for inhibition of the hypersensitivity response (weight bearing) / reversal of CFA induced hypersensitivity (weight bearing): rat
# Description: (§1) Assessment of the anti-hyperalgesic properties of (3S)-tetrahydrofuran-3-yl (4S)-4-isopropyl-1,4,6,7-tetrahydro-5H-imidazo[4,5-c]pyridine-5-carboxylate mesylate salt was determined through measurement of weight bearing following CFA induced hypersensitivity. Naive rats distribute their body weight equally between the two hind paws. However, when the injected (left) hind paw is painful, the weight is re-distributed so that less weight is put on the affected paw (decrease in weight bearing on injured paw). Weight bearing through each hind limb was measured using a rat incapacitance tester (Linton Instruments, UK). Rats were placed in the incapacitance tester with the hind paws on separate sensors and the average force exerted by both hind limbs was recorded over 4 seconds. The injection of CFA also induces an oedema that can be assessed by paw volume; this is measured using a plethysmometer. The rat's hind paw is placed into the cylinder containing a solution and the volume of displaced liquid determines the paw volume.
# Naive male, Sprague Dawley rats were acclimatised with food and water available ad libitum. Habituation to the incapacitance tester was performed. Baseline weight bearing and paw volume recordings were taken prior to induction of insult. Inflammatory hypersensitivity was induced by intraplantar injection of CFA (100μl of 1 mg/ml solution) into the left hind paw. A pre-treatment weight bearing and paw volume measurement was taken to assess hypersensitivity 23 hours post-CFA. Animals were then ranked and randomised according to CFA window in a Latin square design. […] (dosed in water at 2 mL/Kg, pH ˜5-6), alongside vehicle and reference group (indomethacin), n=9-10 per group. Weight bearing was assessed in all groups 1, 2 and 4 hours post compound administration. Paw volume was assessed 4 hours post compound administration. Data was analysed by comparing treatment groups to control group at each time point. Weight bearing (g) readings were taken for both right and left hind paws and the difference calculated. Data is expressed as % reversal of the hypersensitivity to pain, (post dose reading—pre dose reading)/(naïve reading—pre dose reading)×100, where naive weight bearing difference—pre dose weight bearing difference is defined as the CFA window to be reversed Statistical analysis was conducted by means of repeated measures ANOVA followed by Planned comparison test using InVivoStat (invivostat.co.uk), (p<0.05 considered significant).
# as §1, with “of (S)-Carbidopa” for “of (3S)-tetrahydrofuran-3-yl (4S)-4-isopropyl-1,4,6,7-tetrahydro-5H-imidazo[4,5-c]pyridine-5-carboxylate mesylate salt”, “the Incapacitance” for “the incapacitance”
# Naive male, Sprague Dawley rats were acclimatised with food and water available ad libitum. Habituation to the incapacitance tester was performed. Baseline weight bearing and paw volume recordings were taken prior to induction of insult. Inflammatory hypersensitivity was induced by intraplantar injection of CFA (100 μl of 1 mg/ml solution) into the left hind paw.
# [2] = test system: CCI induced neuropathic pain; assay: Chronic Constriction Injury (CCI) model of neuropathic pain, mechanical allodynia (von-Frey); assay type: in vivo, rat
# Source text: The Chronic Constriction Injury (CCI) model of neuropathic pain involves unilateral loose ligation of four ligatures around the left sciatic nerve at mid-thigh level spaced 1 mm apart. This procedure results in the development of hyperalgesia, allodynia and spontaneous pain (ectopic discharges) which can be measured using mechanical and thermal behavioural assessments. As such, this model is believed to mimic some of the symptoms and aetiology of neuropathic pain observed in the clInic (Bennett G J and Xie Y K., 1988; Field et al., 1999).
# Naive male Sprague Dawley rats weighing 200-250 g were acclimatised to the procedure room in their home cages, with food and water available ad libitum. All animals underwent behavioural testing of mechanical allodynia prior to surgery in order to determine the baseline withdrawal thresholds. The average of the last two (out of three) baseline paw-withdrawal thresholds to stimulation with von-Frey hairs was taken as the baseline.
# Under Isoflurane anaesthesia mixed with oxygen […] the left hind leg was shaved mid-thigh level and an incision made through the skin using a scalpel. The biceps femoris muscle layer was dissected by making an initial incision using a pair of sharp scissors, which was then widened using a pair of blunt scissors. The common sciatic nerve was exposed using a pair of forceps and 4 loose ligatures of chromic gut (SMI) were tied around the sciatic nerve with 1 mm spacing between each. The nerve was then returned below the muscle layer and the wound closed using absorbable sutures (Vicryl).
# Behavioural testing started 19 days post-surgery with mechanical readings taken on day 19, and day 22. […]
# On day 23, animals were treated orally with either Vehicle (30% aqueous hydroxypropyl-beta-cyclodextrin), 4-{5-[3-(4-Fluorophenyl)-3H-imidazo[4,5-c]pyridin-2-yl]pyridin-2-yl}morpholine 15, 50 and 150 mg/kg (5 mL/kg dose volume), or Pregabalin 30 mg/kg (2 mL/kg dose volume in water). Paw withdrawal thresholds (PWT) from each of the animals (mechanical von-Frey, mvF) were evaluated at 1 and 3 hours post dosing.
# Static mechanical (tactile) allodynia: Measurement of withdrawal threshold was achieved using calibrated (force; g) von-Frey monofilaments (Touch-Test Sensory Evaluator; Scientific Marketing Associates) applied to the plantar surface of the hindpaw. Withdrawal threshold was determined by increasing and decreasing stimulus intensity, and estimated using the Dixon's up-down method (Dixon, 1980; Chaplan et al., 1994). […]
# Mechanical allodynia (von Frey) data were analysed using two-way repeated measures ANOVA with ‘treatment’ as a between subjects effect and ‘day’ as a within subjects effect. […]
# CFA induced oedema = CFA induced oedema in rat, paw volume (plethysmometer); assay type: in vivo
# Description: as §1, with “The rat's hind paw is placed into the cylinder containing a solution and the volume of displaced liquid determines the paw volume.” left out
# Naive male, Sprague Dawley rats were acclimatised with food and water available ad libitum. […] Weight bearing was assessed in all groups 1, 2 and 4 hours post compound administration. […] Data was analysed by comparing treatment groups to control group at each time point. Weight bearing (g) readings were taken for both right and left hind paws and the difference calculated. […]
# Data Is expressed as % reversal of the hypersensitivity to pain. Paw Volume (mL) readings were taken for the left hind paws. […]
# [3] = oral 10 mg/kg, 1 and 4 hours post administration
# [4] = oral 1, 3 and 10 mg/kg, 24 hours post CFA, 1 and 4 hours post treatment
smiles,measurement,setting,value
"CS(=O)(=O)N1CCN(c2ccc(-c3nc4ccncc4n3-c3ccc(F)cc3)cn2)CC1 [1-{5-[3-(4-Fluorophenyl)-3H-imidazo[4,5-c]pyridin-2-yl]pyridin-2-yl}-4 methanesulfonylpiperazine]",inhibition of the hypersensitivity response (weight bearing),"[1]; oral 3 mg/kg, 1 and 4 hours post administration",significant reduction at 4 hours post administration
same,inhibition of the hypersensitivity response (weight bearing),[1]; [3],significantly inhibiting the hyperactivity response at both 1 and 4 hours post administration
same,inhibition of the hypersensitivity response (weight bearing),[1]; [4],dose-dependently inhibited the hypersensitivity response
"Fc1ccc(-n2c(-c3ccc(N4CCOCC4)nc3)nc3ccncc32)cc1 [4-{5-[3-(4-Fluorophenyl)-3H-imidazo[4,5-c]pyridin-2-yl]pyridin-2-yl}morpholine]",withdrawal threshold (von-Frey mechanical allodynia),"[2]; rat CCI, 50 mg/kg p.o., vs the vehicle group",reaching statistical significance at 3 h
same,withdrawal threshold (von-Frey mechanical allodynia),"[2]; rat CCI, 150 mg/kg p.o., vs the vehicle group",reaching statistical significance vs the vehicle group at 1 h and 3 h
same,withdrawal threshold (von-Frey mechanical allodynia),"[2]; rat CCI, 15, 50 and 150 mg/kg p.o., 1 and 3 hours post dosing, FIG. 9",increased withdrawal threshold in a dose and temporally dependent fashion
"CC(C)[C@H]1c2nc[nH]c2CCN1C(=O)O[C@H]1CCOC1.CS(=O)(=O)O [(3S) Tetrahydrofuran-3-yl (4S)-4-isopropyl-1,4,6,7-tetrahydro-5H-imidazo[4,5-c]pyridine-5-carboxylate mesylate salt]",reversal of CFA induced hypersensitivity (weight bearing),"[1]; 150 mg/kg p.o., 1, 2 and 4 hours post dose",no significant reversal of hypersensitivity at any time point
same,reversal of CFA induced hypersensitivity (weight bearing),"[1]; 250 mg/kg p.o., 1, 2 and 4 hours post dose",significant reversal at 4 hours
same,reversal of CFA induced hypersensitivity (weight bearing),"[1]; 500 mg/kg p.o., 1, 2 and 4 hours post dose",effective at all time points with maximum effect seen at 4 hours post dose
"CC(C)[C@H]1c2nc[nH]c2CCN1C(=O)O[C@H]1CCOC1 [(3S)-Tetrahydrofuran-3-yl (4S)-4-isopropyl-1,4,6,7-tetrahydro-5H-imidazo[4,5-c]pyridine-5-carboxylate]",efficacy in CFA hyperalgesia model (reversal of hypersensitivity),"[1]; rat, 150, 250 and 500 mg/kg p.o., compared with indomethacin 10 mg/kg, FIG. 1","effective in a dose-dependent manner, and comparably in efficacy to the gold standard benchmark indomethacin"
"CC(C)[C@H]1c2nc[nH]c2CCN1C(=O)O[C@H]1CCOC1.CS(=O)(=O)O [(3S)-tetrahydrofuran-3-yl (4S)-4-isopropyl-1,4,6,7-tetrahydro-5Himidazo[4,5-c]pyridine-5-carboxylate mesylate salt]",effect on paw volume,"CFA induced oedema; rat, 150, 250 and 500 mg/kg p.o., 4 hours post compound administration",No effect
"C[C@@](Cc1ccc(O)c(O)c1)(NN)C(=O)O [(S)-Carbidopa, reference compound]",inhibition of the hypersensitivity response (weight bearing),"[1]; Part B, 3-100 mg/kg alone, 1 and 3 hours post treatment, FIG. 4",dose-dependently inhibited the hypersensitivity response
same,effect on oedema (paw volume),"CFA induced oedema; rat, Part B, 3-100 mg/kg, 3 hours post treatment, FIG. 5",no effect on oedema
"CC(=O)N1CCN(c2ccc(-c3nc4ccncc4n3-c3ccc(F)cc3)cn2)CC1 [Compound 2, 1-(4-{5-[3-(4-Fluorophenyl)-3H-imidazo[4,5-c]pyridin-2-yl]pyridin-2-yl}piperazin-1-yl)ethan-1-one]",inhibition of the hypersensitivity response (weight bearing),[1]; [3],significantly inhibiting the hyperactivity response at both 1 and 4 hours post administration
same,inhibition of the hypersensitivity response (weight bearing),[1]; [4],dose-dependently inhibited the hypersensitivity response
"C[C@]12C=CC(=O)C=C1CC[C@@H]1[C@@H]2[C@@H](O)C[C@@]2(C)[C@H]1CC[C@]2(O)C(=O)CO [Prednisolone, reference compound]",inhibition of the hypersensitivity response (weight bearing),"[1]; Part A, 0.3-10 mg/kg alone, 1 and 3 hours post treatment, FIG. 3",dose-dependently inhibited the hypersensitivity response
"CC(C)C[C@H](CN)CC(=O)O [Pregabalin, reference compound]",withdrawal threshold (von-Frey mechanical allodynia),"[2]; rat CCI, 30 mg/kg p.o., day 23 post-surgery, reference",increased the withdrawal threshold to a degree that was comparable with those animals that had undergone sham surgery
"COc1ccc2c(c1)c(CC(=O)O)c(C)n2C(=O)c1ccc(Cl)cc1 [indomethacin, reference compound]",reversal of CFA induced hypersensitivity (weight bearing),"[1]; 10 mg/kg, 24 hours post CFA, reference",marked reversal of the hypersensitivity

# Reference: patent US20200397764A1, “VAP-1 INHIBITORS FOR TREATING PAIN” (BENEVOLENTAI CAMBRIDGE LIMITED, priority 2015, published 2020)
